Converted amounts (≈) assume the structure as drawn. Where two headings read alike, the source gives them in different places.
Key:
[1] = system: escherichia coli Kauffman 0-1; test: MIC against escherichia coli Kauffman 0-1; format: cell-based
From the text: (§1) Now, for illustrating the excellent pharmacological effects of the compounds of this invention, the values of MIC (γ/ml) of the compounds against various bacteria are shown in the following table, the compounds of this invention are shown by example numbers.
7: escherichia coli Kauffman 0-1

[2] = system: micrococcus flavus ATCC 10240; test: MIC against micrococcus flavus ATCC 10240; format: cell-based; conditions: ATCC10240; micrococcus flavus ATCC 10240; read-out: MIC
From the text: as §1

[3] = system: Shigella flexnori 2a 1675; test: MIC against Shigella flexnori 2a 1675; format: cell-based; conditions: 2A1675
From the text: as §1

Shigella sonnei II 37148 = test: MIC against Shigella sonnei II 37148; format: cell-based; conditions: II37148
From the text: as §1

[4] = system: Klebsiella pneumoniae ATCC 10031; test: MIC against Klebsiella pneumoniae ATCC 10031; format: cell-based; conditions: ATCC10031
From the text: as §1
8: Klebsiella pneumoniae ATCC 10031

Staphylococcus Onuma = test: MIC against Staphylococcus Onuma; format: cell-based
From the text: as §1

[5] = system: bacillus megatherium 10778; test: MIC against bacillus megatherium 10778; format: cell-based; conditions: bacillus megatherium 10778; read-out: MIC
From the text: as §1

[6] = system: Pseudomonas ovalis IAM 1002; test: MIC against Pseudomonas ovalis IAM 1002; format: cell-based; conditions: Pseudomonas putida, IAM1002
From the text: as §1
6: Pseudomonas ovalis IAM 1002

Proteus vulgaris OXK US = test: MIC against Proteus vulgaris OXK US; format: cell-based; conditions: Proteus vulgaris OXK US; read-out: MIC
From the text: as §1
1: Proteus vulgaris OXK US

[7] = system: Bacillus subtilis ATCC 6633; test: MIC against Bacillus subtilis ATCC 6633; format: cell-based; conditions: ATCC6633; Bacillus subtilis ATCC 6633; read-out: MIC
From the text: as §1
14: Bacillus subtilis ATCC 6633

[8] = system: staphylococcus aureus 209P; test: MIC against staphylococcus aureus 209P; format: cell-based
From the text: as §1
16: staphylococcus aureus 209P

salmonella enteritidis = test: MIC against salmonella enteritidis; format: cell-based; conditions: Salmonella enterica
From the text: as §1
10: salmonella enteritidis

salmonella typhi H901W = test: microbe, parasite or virus in culture; format: cell-based; conditions: Salmonella enterica
[9] = system: staphylococcus Shimanishi; test: MIC against staphylococcus Shimanishi; format: cell-based; conditions: staphylococcus Shimanishi; read-out: MIC
From the text: as §1
17. staphylococcus Shimanishi

[10] = system: pseudomonas aeruginosa ATCC 8689; test: MIC against pseudomonas aeruginosa ATCC 8689; format: cell-based; conditions: ATCC8689
From the text: as §1
4: pseudomonas aeruginosa ATCC 8689

[11] = system: proteus mirabilis IFM OM-19; test: MIC against proteus mirabilis IFM OM-19; format: cell-based; conditions: IFMOM19
From the text: as §1
3. proteus mirabilis IFM OM-19

[12] = system: pseudomonas aeruginosa 99 (Gentamycin resistant); test: MIC against pseudomonas aeruginosa 99 (Gentamycin resistant); format: cell-based
From the text: as §1
5: pseudomonas aeruginosa 99 (Gentamycin resistant)

proteus vulgaris OX 19US = test: MIC against proteus vulgaris OX 19US; format: cell-based; conditions: OX19US
From the text: as §1
2. proteus vulgaris OX 19US

[13] = water solubility, naked-eye observation of solutions; format: physicochemical
From the text: Then, the experimental results showing the excellent water solubility of the compounds of this invention are illustrated in the following table, the results being the observation results by the naked eyes of the solutions thereof in each concentration as shown in the table.

[14] = escherichia coli Kauffman 0-1, read-out: MIC
[15] = Staphylococcus Onuma, read-out: MIC
[16] = salmonella enteritidis, read-out: MIC
[17] = pseudomonas aeruginosa ATCC 8689, read-out: MIC
[18] = proteus vulgaris OX 19US, read-out: MIC
[19] = Klebsiella pneumoniae ATCC 10031, read-out: MIC
[20] = pseudomonas aeruginosa 99 (Gentamycin resistant), read-out: MIC
[21] = Pseudomonas ovalis IAM 1002, read-out: MIC

SMILES	MIC [1, 14] [µg/mL]	MIC [2] [µg/mL]	MIC [3] [µg/mL]	MIC (Shigella sonnei II 37148) [µg/mL]	MIC ([4]; Klebsiella pneumoniae) [µg/mL]	MIC (Staphylococcus Onuma; [15]) [µg/mL]	MIC [5] [µg/mL]	MIC [6] [µg/mL]	MIC (Proteus vulgaris OXK US) [µg/mL]	MIC [7] [µg/mL]	MIC (salmonella enteritidis; [16]) [µg/mL]	MIC (salmonella typhi H901W) [µg/mL]	MIC [9] [µg/mL]	MIC [10, 17] [µg/mL]	MIC [11] [µg/mL]	MIC (proteus vulgaris OX 19US; [18]) [µg/mL]	MIC [4, 19] [µg/mL]	MIC ([8]; read-out: MIC) [µg/mL]	MIC [12, 20] [µg/mL]	MIC [6, 21] [µg/mL]	other results
CSc1nc(S)cc(SCC2=C(C(=O)O)N3C(=O)[C@@H](NC(=O)[C@H](NC(=O)c4cnccc4O)c4ccccc4)[C@H]3SC2)n1 [Example 7, 7-[D-α-(4-hydroxynicotinoylamido)-α-phenylacetamido]-3-(4-mercapto-2-methylthiopyrimidin-6-yl)thiomethyl-Δ^3-cephem-4-carboxylic acid]	25 (≈ 38.1 µM)	0.78 (≈ 1.19 µM)	12.5 (≈ 19 µM)	25 (≈ 38.1 µM)	12.5 (≈ 19 µM)	3.13 (≈ 4.77 µM)	0.39 (≈ 0.594 µM)	12.5 (≈ 19 µM)	0.78 (≈ 1.19 µM)	0.19 (≈ 0.289 µM)	0.39 (≈ 0.594 µM)	0.78 (≈ 1.19 µM)	0.78 (≈ 1.19 µM)	25 (≈ 38.1 µM)	0.78 (≈ 1.19 µM)	0.39 (≈ 0.594 µM)	–	–	–	–	MIC [8]: 0.19 µg/mL (≈ 0.289 µM); MIC ([12]; Pseudomonas aeruginosa): 12.5 µg/mL (≈ 19 µM)
Nc1cc(Cl)cc(SCC2=C(C(=O)O)N3C(=O)C(NC(=O)C(NC(=O)c4cccnc4)c4ccccc4)C3SC2)n1 (stereo not drawn) [Contrast, 7-(α-nicotinoylamido-α-phenylacetamido)-3-(2-amino-4-chloropyidin-6-ylthiomethyl)-Δ ^3-cephem-carboxylic acid, reference compound]	–	–	–	–	–	–	–	–	–	–	–	–	–	–	–	–	–	–	–	–	water solubility (appearance of solution by the naked eyes) ([13]; concentration 1%): clear; water solubility (appearance of solution by the naked eyes) ([13]; concentration 5%): slightly turbid; water solubility (appearance of solution by the naked eyes) ([13]; concentration 10%): turbid; water solubility (appearance of solution by the naked eyes) ([13]; concentration 20%): gelled
Nc1nc(S)cc(SCC2=C(C(=O)O)N3C(=O)[C@@H](NC(=O)[C@H](NC(=O)c4cnccc4O)c4ccccc4)[C@H]3SC2)n1 [Example 6]	6.25 (≈ 9.99 µM)	3.13 (≈ 5 µM)	12.5 (≈ 20 µM)	12.5 (≈ 20 µM)	–	6.25 (≈ 9.99 µM)	0.78 (≈ 1.25 µM)	12.5 (≈ 20 µM)	0.19 (≈ 0.304 µM)	0.78 (≈ 1.25 µM)	0.39 (≈ 0.623 µM)	0.19 (≈ 0.304 µM)	3.13 (≈ 5 µM)	100 (≈ 160 µM)	1.56 (≈ 2.49 µM)	–	6.25 (≈ 9.99 µM)	0.78 (≈ 1.25 µM)	50 (≈ 79.9 µM)	–	MIC (proteus vulgaris OX 19US; Proteus vulgaris): 12.5 µg/mL (≈ 20 µM)
CC(=O)OCC1=C(C(=O)O)N2C(=O)[C@@H](NC(=O)[C@H](N)c3ccccc3)[C@H]2SC1 [Cephaloglycin, reference compound]	100 (≈ 247 µM)	0.3 (≈ 0.74 µM)	3 (≈ 7.4 µM)	10 (≈ 24.7 µM)	–	3 (≈ 7.4 µM)	1 (≈ 2.47 µM)	–	25 (≈ 61.7 µM)	0.3 (≈ 0.74 µM)	3 (≈ 7.4 µM)	3 (≈ 7.4 µM)	3 (≈ 7.4 µM)	> 100	100 (≈ 247 µM)	100 (≈ 247 µM)	25 (≈ 61.7 µM)	1 (≈ 2.47 µM)	–	> 100	MIC ([12]; Pseudomonas aeruginosa): > 100 µg/mL
O=C(O)C1=C(CSc2ccc(S)nn2)CS[C@@H]2[C@H](NC(=O)[C@H](NC(=O)c3cnccc3O)c3ccccc3)C(=O)N12 [Example 1, 7-[D-α-(4-hydroxynicotinoylamido)-α-phenylacetamido]-3-(3-mercaptopyridazin-6-yl)thiomethyl-Δ^3-cephem-4-carboxylic acid]	–	3.13 (≈ 5.13 µM)	6.25 (≈ 10.2 µM)	12.5 (≈ 20.5 µM)	6.25 (≈ 10.2 µM)	–	0.39 (≈ 0.639 µM)	–	0.19 (≈ 0.311 µM)	0.39 (≈ 0.639 µM)	–	0.39 (≈ 0.639 µM)	1.56 (≈ 2.55 µM)	–	0.39 (≈ 0.639 µM)	0.78 (≈ 1.28 µM)	–	0.39 (≈ 0.639 µM)	50 (≈ 81.9 µM)	25 (≈ 40.9 µM)	MIC ([1]; Escherichia coli): 6.25 µg/mL (≈ 10.2 µM); MIC (Staphylococcus Onuma; Staphylococcus): 6.25 µg/mL (≈ 10.2 µM); MIC (salmonella enteritidis; ENTERITIDIS): 0.39 µg/mL (≈ 0.639 µM); MIC ([10]; Pseudomonas aeruginosa): 100 µg/mL (≈ 164 µM)
Cc1nnc(SCC2=C(C(=O)O)N3C(=O)C(NC(=O)C(NC(=O)c4cccnc4)c4ccccc4)C3SC2)s1 (centres unmarked) [Example C-2, reference compound]	100 (≈ 172 µM)	1.56 (≈ 2.68 µM)	50 (≈ 85.8 µM)	100 (≈ 172 µM)	–	–	3.13 (≈ 5.37 µM)	–	6.25 (≈ 10.7 µM)	1.56 (≈ 2.68 µM)	–	> 100	–	> 100	25 (≈ 42.9 µM)	–	12.5 (≈ 21.5 µM)	–	> 100	> 100	–

Source: patent publication US4036834A, “Derivatives of 7-(α-hydroxy-substituted pyridyl carboxamido-α p h Δ^3 -cephem-4-carboxylic acid” (Yamanouchi Pharmaceutical Co., Ltd., priority 1974, dated 1977)
